Results published in publication PMC4447944 (The Journal of Biological Chemistry, 2015).

How the values were obtained:
[1] = test system: SMYD2-induced p53 methylation; assay: Cell-based ELISA for p53 Lys370me1, U2OS cells transfected with FLAG-SMYD2; settings: Homo sapiens, 15 h
Experimental: Cell lysates were subject to 10% SDS-PAGE and transferred to a PVDF membrane. Each membrane was blocked in Odyssey Blocking Buffer (LI-COR Biosciences) and incubated with monoclonal anti-p53 (D01) antibody (Abcam, ab1101) or rabbit anti-p53 Lys^370me1 antibody (a kind gift from Dr. Shelley Berger) followed by detection with IRDye®680RD goat anti-mouse IgG (LI-COR Biosciences) and IRDye800CW goat anti-rabbit IgG (LI-COR Biosciences) on the Odyssey Imager (LI-COR Biosciences). […] 4–8 h later, cells were treated with 0–25 μM compound for 15 h. […] 24 h later, cells were lysed with 200 μl of MSD Tris Lysis Buffer^TM (Meso Scale Discovery). A MULTI-ARRAY^TM 96-well plate (Meso Scale Discovery, catalog number L15XA-3) was precoated with 2 μg/ml custom-made methyl-p53 antibody (Lampire) in PBS overnight at 4 °C. 150 μl/well MSD Blocking Solution A^TM (final concentration of 3%) was added followed by shaking at room temperature for 1 h. The plate was washed three times with 1× MSD Tris Wash Buffer^TM (Meso Scale Discovery). 0.5 μg of cell lysate in 25 μl/well MSD Tris Lysis Buffer was added, followed by shaking overnight at 4 °C. […] Following a final wash three times with 1× MSD Tris Wash Buffer, 150 μl/well 1× MSD Read Buffer^TM (Meso Scale Discovery) was added, and plates were read on an MSD SECTOR^TM Imager 6000 instrument (Meso Scale Discovery).

[2] = molecular target: T1, hABL1 (Homo sapiens, UniProt P00519); assay: KINOMEscan; type: binding
T1 construct: purchased DiscoverX (KINOMEscan platform)
T1 sequence (P00519 whole entry): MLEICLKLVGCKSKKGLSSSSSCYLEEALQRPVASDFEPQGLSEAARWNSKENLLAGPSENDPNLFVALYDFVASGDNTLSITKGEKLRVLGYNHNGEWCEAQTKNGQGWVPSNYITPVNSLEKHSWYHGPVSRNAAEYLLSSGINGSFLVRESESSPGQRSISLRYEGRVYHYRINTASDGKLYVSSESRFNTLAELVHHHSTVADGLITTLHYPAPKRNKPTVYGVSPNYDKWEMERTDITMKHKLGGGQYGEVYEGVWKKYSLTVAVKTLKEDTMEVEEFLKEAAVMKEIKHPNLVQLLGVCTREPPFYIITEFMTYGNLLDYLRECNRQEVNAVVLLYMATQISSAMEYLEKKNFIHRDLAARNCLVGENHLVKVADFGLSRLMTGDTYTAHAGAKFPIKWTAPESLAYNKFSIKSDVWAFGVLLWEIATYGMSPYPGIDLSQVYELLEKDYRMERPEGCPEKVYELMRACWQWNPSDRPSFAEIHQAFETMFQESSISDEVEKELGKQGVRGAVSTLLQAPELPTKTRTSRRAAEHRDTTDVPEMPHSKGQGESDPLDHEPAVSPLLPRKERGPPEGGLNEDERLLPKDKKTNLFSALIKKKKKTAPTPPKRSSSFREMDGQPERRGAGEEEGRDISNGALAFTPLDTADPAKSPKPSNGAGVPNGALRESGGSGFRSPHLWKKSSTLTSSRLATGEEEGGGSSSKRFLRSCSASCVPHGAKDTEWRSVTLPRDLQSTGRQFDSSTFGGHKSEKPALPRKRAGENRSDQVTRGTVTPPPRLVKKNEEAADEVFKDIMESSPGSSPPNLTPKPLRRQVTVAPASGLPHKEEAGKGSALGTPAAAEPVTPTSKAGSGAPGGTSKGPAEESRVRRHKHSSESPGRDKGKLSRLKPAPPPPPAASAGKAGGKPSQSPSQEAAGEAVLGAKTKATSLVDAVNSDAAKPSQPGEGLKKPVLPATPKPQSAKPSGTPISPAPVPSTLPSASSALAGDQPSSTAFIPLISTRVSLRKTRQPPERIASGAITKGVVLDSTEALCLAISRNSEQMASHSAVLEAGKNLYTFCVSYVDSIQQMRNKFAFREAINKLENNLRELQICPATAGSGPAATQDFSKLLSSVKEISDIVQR

[3] = molecular target: T2, hACVR2A (Homo sapiens, UniProt P27037); assay: KINOMEscan; type: binding
T2 construct: purchased DiscoverX (KINOMEscan platform)

[4] = molecular target: T3, hBLK (Homo sapiens, UniProt P51451); assay: KINOMEscan; type: binding
T3 construct: purchased DiscoverX
T3 sequence (P51451 whole entry): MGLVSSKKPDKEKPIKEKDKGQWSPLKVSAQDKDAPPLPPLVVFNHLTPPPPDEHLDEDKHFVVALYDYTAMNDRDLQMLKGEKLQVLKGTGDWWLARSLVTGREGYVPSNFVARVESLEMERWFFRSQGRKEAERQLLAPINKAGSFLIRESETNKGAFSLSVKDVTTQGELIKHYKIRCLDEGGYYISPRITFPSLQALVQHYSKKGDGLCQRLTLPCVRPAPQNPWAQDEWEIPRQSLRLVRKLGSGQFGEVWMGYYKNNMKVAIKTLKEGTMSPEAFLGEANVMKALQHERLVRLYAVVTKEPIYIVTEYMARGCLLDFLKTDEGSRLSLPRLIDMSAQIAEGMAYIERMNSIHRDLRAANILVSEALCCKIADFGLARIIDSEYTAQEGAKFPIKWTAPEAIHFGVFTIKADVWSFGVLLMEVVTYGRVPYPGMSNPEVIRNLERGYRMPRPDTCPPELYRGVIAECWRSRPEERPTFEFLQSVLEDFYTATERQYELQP

[5] = molecular target: T4, hCAMK1 (Homo sapiens, UniProt Q14012); assay: KINOMEscan; type: binding
T4 construct: purchased DiscoverX

[6] = molecular target: T5, hCAMKK2 (Homo sapiens, UniProt Q96RR4); assay: KINOMEscan; type: binding
T5 construct: purchased DiscoverX

[7] = molecular target: T6, hCTK (Homo sapiens, UniProt P42679); assay: KINOMEscan; type: binding
T6 construct: purchased DiscoverX (KINOMEscan platform)

[8] = molecular target: T7, hDDR1 (Homo sapiens, UniProt Q08345); assay: KINOMEscan; type: binding
T7 construct: purchased DiscoverX (KINOMEscan platform)

[9] = molecular target: T8, hEGFR(L747-S752del, P753S) (Homo sapiens, UniProt P00533, DEL747-752/P753S); assay: KINOMEscan; type: binding
T8 construct: purchased DiscoverX

[10] = molecular target: T9, hEGFR(L858R) (Homo sapiens, UniProt P00533, L858R); assay: KINOMEscan; type: binding
T9 construct: purchased DiscoverX

[11] = molecular target: T10, hEPHB3 (Homo sapiens, UniProt P54753); assay: KINOMEscan; type: binding
T10 construct: purchased DiscoverX
T10 sequence (P54753 34-998): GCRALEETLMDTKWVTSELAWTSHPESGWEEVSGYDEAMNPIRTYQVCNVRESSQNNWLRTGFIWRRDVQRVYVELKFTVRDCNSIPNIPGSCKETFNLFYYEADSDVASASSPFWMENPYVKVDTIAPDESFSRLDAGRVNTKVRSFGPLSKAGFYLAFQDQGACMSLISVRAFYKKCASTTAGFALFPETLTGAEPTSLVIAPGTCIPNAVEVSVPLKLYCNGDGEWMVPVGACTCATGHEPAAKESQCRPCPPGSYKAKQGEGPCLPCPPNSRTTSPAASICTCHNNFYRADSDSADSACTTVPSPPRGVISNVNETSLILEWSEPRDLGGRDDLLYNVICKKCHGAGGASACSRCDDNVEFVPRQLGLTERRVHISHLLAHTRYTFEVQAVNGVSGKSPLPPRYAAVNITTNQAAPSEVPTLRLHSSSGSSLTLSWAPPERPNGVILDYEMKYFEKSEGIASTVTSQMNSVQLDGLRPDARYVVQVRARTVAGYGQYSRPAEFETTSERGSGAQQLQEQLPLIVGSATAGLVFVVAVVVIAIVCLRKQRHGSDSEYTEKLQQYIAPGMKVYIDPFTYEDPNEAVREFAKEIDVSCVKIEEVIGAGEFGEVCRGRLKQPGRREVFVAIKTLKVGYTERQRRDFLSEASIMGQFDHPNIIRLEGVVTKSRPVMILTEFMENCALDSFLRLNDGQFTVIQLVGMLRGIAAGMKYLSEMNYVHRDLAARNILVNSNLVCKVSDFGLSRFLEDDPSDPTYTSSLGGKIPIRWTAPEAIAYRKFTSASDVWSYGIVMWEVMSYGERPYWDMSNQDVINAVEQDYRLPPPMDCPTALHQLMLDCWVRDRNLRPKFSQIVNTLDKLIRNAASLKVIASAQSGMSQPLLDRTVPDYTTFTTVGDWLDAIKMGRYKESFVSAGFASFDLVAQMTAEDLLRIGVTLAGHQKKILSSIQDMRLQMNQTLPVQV

[12] = molecular target: T11, hFGFR1 (Homo sapiens, UniProt P11362); assay: KINOMEscan; type: binding
T11 construct: purchased DiscoverX

[13] = molecular target: T12, hJNK3 (Homo sapiens, UniProt P53779); assay: KINOMEscan; type: binding
T12 construct: purchased DiscoverX (KINOMEscan panel)

[14] = molecular target: T13, hKIT(A829P) (Homo sapiens, UniProt P10721, A829P); assay: KINOMEscan; type: binding
T13 construct: purchased DiscoverX (KINOMEscan panel)

[15] = molecular target: T14, hKIT(D816H) (Homo sapiens, UniProt P10721, D816H); assay: KINOMEscan; type: binding
T14 construct: purchased DiscoverX (KINOMEscan panel)

[16] = molecular target: T15, hLIMK2 (Homo sapiens, UniProt P53671); assay: KINOMEscan; type: binding
T15 construct: purchased DiscoverX (KINOMEscan platform)

[17] = molecular target: T16, hLOK (Homo sapiens, UniProt O94804); assay: KINOMEscan; type: binding
T16 construct: purchased DiscoverX (KINOMEscan platform)
T16 sequence (O94804 whole entry): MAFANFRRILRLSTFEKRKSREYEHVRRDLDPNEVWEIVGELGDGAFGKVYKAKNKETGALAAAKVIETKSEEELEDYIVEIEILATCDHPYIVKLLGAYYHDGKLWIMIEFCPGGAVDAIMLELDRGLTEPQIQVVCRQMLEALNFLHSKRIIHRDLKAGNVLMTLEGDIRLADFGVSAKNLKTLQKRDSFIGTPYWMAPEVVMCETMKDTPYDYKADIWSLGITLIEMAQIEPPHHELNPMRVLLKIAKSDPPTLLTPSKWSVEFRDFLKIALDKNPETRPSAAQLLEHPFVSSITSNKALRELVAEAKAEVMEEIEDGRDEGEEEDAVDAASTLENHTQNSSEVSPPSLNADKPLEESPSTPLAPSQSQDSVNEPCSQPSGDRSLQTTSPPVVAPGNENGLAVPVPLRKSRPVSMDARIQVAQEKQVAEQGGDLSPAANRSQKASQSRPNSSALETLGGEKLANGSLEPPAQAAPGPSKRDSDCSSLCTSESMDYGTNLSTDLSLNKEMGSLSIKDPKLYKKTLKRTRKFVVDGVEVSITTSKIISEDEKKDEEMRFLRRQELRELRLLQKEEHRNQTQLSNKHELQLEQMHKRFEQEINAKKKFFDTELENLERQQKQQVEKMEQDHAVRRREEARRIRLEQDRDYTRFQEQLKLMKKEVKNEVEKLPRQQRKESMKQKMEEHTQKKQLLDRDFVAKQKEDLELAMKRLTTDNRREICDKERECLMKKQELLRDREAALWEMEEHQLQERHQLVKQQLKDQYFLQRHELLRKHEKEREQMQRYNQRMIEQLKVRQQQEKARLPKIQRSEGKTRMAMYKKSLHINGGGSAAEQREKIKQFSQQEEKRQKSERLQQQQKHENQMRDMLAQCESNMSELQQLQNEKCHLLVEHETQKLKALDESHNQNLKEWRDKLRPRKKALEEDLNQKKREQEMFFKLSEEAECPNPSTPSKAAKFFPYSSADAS

[18] = molecular target: T17, hMET(Y1235D) (Homo sapiens, UniProt P08581, Y1235D); assay: KINOMEscan; type: binding
T17 construct: purchased DiscoverX

[19] = molecular target: T18, hMINK (Homo sapiens, UniProt Q8N4C8); assay: KINOMEscan; type: binding
T18 construct: purchased DiscoverX

[20] = molecular target: T19, hPIP5K1A (Homo sapiens, UniProt Q99755); assay: KINOMEscan; type: binding
T19 construct: purchased DiscoverX

[21] = molecular target: T20, hRET(V804L) (Homo sapiens, UniProt P07949, V804L); assay: KINOMEscan; type: binding
T20 construct: purchased DiscoverX (KINOMEscan platform)

[22] = molecular target: T21, hRPS6KA4(Kin.Dom.1-N-term) (Homo sapiens, UniProt O75676); assay: KINOMEscan; type: binding
T21 construct: hRPS6KA4(Kin.Dom.1-N-term); purchased DiscoverX (KINOMEscan platform)

[23] = molecular target: T22, hSBK1 (Homo sapiens, UniProt Q52WX2); assay: KINOMEscan; type: binding
T22 construct: purchased DiscoverX (KINOMEscan platform)

[24] = molecular target: T23, hSgK110 (Homo sapiens, UniProt P0C264); assay: KINOMEscan; type: binding
T23 construct: purchased DiscoverX (KINOMEscan platform)

[25] = molecular target: T24, hSIK2 (Homo sapiens, UniProt Q9H0K1); assay: KINOMEscan; type: binding
T24 construct: purchased DiscoverX (KINOMEscan platform)
T24 sequence (Q9H0K1 whole entry): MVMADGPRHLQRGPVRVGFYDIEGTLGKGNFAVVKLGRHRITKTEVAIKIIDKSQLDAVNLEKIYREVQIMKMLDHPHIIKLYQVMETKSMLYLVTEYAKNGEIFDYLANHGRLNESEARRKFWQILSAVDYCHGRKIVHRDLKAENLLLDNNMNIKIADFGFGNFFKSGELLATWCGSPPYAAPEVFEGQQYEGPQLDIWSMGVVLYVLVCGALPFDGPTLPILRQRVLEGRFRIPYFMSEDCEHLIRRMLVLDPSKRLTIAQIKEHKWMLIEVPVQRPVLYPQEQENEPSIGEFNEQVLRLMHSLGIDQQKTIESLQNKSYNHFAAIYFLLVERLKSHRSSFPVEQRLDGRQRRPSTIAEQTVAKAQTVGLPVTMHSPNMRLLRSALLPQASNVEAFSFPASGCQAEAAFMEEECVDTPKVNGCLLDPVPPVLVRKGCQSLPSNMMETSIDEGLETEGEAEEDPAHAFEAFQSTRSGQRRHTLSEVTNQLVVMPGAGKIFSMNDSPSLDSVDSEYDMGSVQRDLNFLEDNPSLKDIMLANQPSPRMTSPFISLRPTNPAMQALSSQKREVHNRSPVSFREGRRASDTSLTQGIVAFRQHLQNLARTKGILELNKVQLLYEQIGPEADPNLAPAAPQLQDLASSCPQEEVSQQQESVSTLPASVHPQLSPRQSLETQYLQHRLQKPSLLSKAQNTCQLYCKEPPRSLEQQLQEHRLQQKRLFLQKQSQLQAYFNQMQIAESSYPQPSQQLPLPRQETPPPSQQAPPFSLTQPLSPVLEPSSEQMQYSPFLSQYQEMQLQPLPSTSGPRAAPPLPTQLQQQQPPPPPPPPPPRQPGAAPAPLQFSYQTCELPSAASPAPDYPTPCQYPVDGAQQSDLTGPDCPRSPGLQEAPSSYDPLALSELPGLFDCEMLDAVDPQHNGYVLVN

[26] = molecular target: T25, hSTK16 (Homo sapiens, UniProt O75716); assay: KINOMEscan; type: binding
T25 construct: purchased DiscoverX (KINOMEscan platform)

[27] = molecular target: T26, hTAOK1 (Homo sapiens, UniProt Q7L7X3); assay: KINOMEscan; type: binding
T26 construct: purchased DiscoverX

[28] = molecular target: T27, hYSK4 (Homo sapiens, UniProt Q56UN5); assay: KINOMEscan; type: binding
T27 construct: purchased DiscoverX

[29] = molecular target: T28, hPPARδ (Homo sapiens, UniProt Q03181); assay: Nuclear hormone receptor assay (Eurofins-CEREP); settings: read-out: Relative IC50
T28 construct: Eurofins-CEREP

[30] = molecular target: hM3 (Homo sapiens, UniProt P20309); assay: Calcium Mobilization Potentiation (Eurofins-CEREP); settings: @ 10 μM
hM3, sequence (P20309 whole entry): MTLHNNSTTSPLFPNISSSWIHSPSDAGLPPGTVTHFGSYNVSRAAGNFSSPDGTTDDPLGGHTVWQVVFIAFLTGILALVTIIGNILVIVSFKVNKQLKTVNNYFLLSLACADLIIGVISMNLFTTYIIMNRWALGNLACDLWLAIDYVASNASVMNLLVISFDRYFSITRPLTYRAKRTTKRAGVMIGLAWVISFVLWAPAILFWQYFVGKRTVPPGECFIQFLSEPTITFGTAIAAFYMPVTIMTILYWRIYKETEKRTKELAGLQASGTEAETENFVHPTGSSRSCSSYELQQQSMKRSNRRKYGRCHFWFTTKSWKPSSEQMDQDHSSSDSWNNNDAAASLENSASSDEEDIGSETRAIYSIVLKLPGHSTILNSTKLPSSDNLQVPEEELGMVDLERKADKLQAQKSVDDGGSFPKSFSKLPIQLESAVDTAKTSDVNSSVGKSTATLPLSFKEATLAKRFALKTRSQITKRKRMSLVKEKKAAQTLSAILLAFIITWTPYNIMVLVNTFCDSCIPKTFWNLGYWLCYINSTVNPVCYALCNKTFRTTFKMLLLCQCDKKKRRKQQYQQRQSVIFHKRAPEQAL

SMILES: Cc1cn(CCN2CCN(c3ccccc3-c3cc(C#N)cc(C(=O)NCCCN4CCCC4)c3)CC2)c2ccccc12 [LLY-507, 3-cyano-5-{2-[4-[2-(3-methylindol-1-yl)ethyl]piperazin-1-yl]-phenyl}-N-[(3-pyrrolidin-1-yl)propyl]benzamide]
- IC50 [1]: 0.6 µM
- IC50 [2]: > 20 µM
- IC50 [3]: > 20 µM
- IC50 [4]: > 20 µM
- IC50 [5]: > 20 µM
- IC50 [6]: > 20 µM
- IC50 [7]: > 20 µM
- IC50 [8]: > 20 µM
- IC50 [9]: > 20 µM
- IC50 [10]: > 20 µM
- IC50 [11]: > 20 µM
- IC50 [12]: > 20 µM
- IC50 [13]: > 20 µM
- IC50 [14]: > 20 µM
- IC50 [15]: > 20 µM
- IC50 [16]: > 20 µM
- IC50 [17]: > 20 µM
- IC50 [18]: > 20 µM
- IC50 [19]: > 20 µM
- IC50 [20]: 16.4 µM
- IC50 [21]: > 20 µM
- IC50 [22]: > 20 µM
- IC50 [23]: > 20 µM
- IC50 [24]: > 20 µM
- IC50 [25]: > 20 µM
- IC50 [26]: > 20 µM
- IC50 [27]: > 20 µM
- IC50 [28]: > 20 µM
- IC50 [29]: > 10 µM
- % Effect, Potentiation [30]: -18%
